Results published in patent publication US11446287B2, “Compounds and methods for EP300 or CBP modulation and indications therefor” (Opna Immuno-Oncology SA, priority 2019, dated 2022).

These molecules were tested against T1, Recombinant human EP300 containing the bromodomain (EP300-BD (1040-1161)) (Homo sapiens, UniProt Q09472) (assay: EP300 Alphascreen binding assay).
T1 construct: Recombinant human EP300 bromodomain (EP300-BD (1040-1161)); made in house; host or cells: E. coli BL21-CodonPlus (DE3), modified pET vector
T1 sequence (Q09472 1040-1161): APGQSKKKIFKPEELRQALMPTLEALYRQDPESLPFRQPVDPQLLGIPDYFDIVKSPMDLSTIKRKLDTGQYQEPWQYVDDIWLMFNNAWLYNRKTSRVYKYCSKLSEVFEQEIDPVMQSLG
Method in brief: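 Displacement of a biotinylated acetyl-K56 histone H3 peptide from the N-His bromodomain construct (1040-1161) measured by AlphaScreen proximity, beads at 7.5 μg/ml final, read 60 min after addition. Protein, peptide and compound first incubated 1 h at room temperature, pH 7.5 HEPES buffer; IC50 by four-parameter logistic fit.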

Row | Structure (SMILES) | IC50 [nM]
1 | Cc1noc(C)c1-c1cnc2c(c1)c(-c1c(Cl)cc(C(=O)O)cc1Cl)cn2[C@@H](C)c1ccccn1 [P-0197, (S)-3,5-dichloro-4-(5-(3,5-dimethylisoxazol-4-yl)-1-(1-(pyridin-2-yl)ethyl)-1H-pyrrolo[2,3-b]pyridin-3-yl)benzoic acid] | 0.1 to 1000
2 | CCOc1ccc(C(=O)O)cc1-n1cc(-c2ccccc2)c2ncc(-c3c(C)noc3C)cc21 [P-0225, 3-(6-(3,5-dimethylisoxazol-4-yl)-3-phenyl-1H-pyrrolo[3,2-b]pyridin-1-yl)-4-ethoxybenzoic acid] | 0.1 to 1000
3 | Cc1ccccc1-n1cc(-c2ccc(C(=O)O)cc2OC(F)(F)F)c2cc(-c3c(C)noc3C)cnc21 [P-0231, 4-(5-(3,5-dimethylisoxazol-4-yl)-1-(o-tolyl)-1H-pyrrolo[2,3-b]pyridin-3-yl)-3-(trifluoromethoxy)benzoic acid] | 0.1 to 1000
4 | CCOc1cc(C(=O)O)cc(OCC)c1-n1cc(-c2cnn(C)c2)c2ncc(-c3c(C)noc3C)cc21 [P-0195, 4-(6-(3,5-dimethylisoxazol-4-yl)-3-(1-methyl-1H-pyrazol-4-yl)-1H-pyrrolo[3,2-b]pyridin-1-yl)-3,5-diethoxybenzoic acid] | 0.1 to 1000
5 | Cc1noc(C)c1-c1cnc2c(c1)c(-c1ccc(C(=O)O)cc1C1CC1)cn2[C@@H](C)c1ccccn1 [P-0181, (S)-3-cyclopropyl-4-(5-(3,5-dimethylisoxazol-4-yl)-1-(1-(pyridin-2-yl)ethyl)-1H-pyrrolo[2,3-b]pyridin-3-yl)benzoic acid] | 0.1 to 1000
6 | Cc1noc(C)c1-c1cnc2c(c1)c(-c1ccc(C(=O)O)cc1OC(F)(F)F)cn2C(CC#N)C1CC1 (stereo not drawn) [P-0199, 4-(1-(2-cyano-1-cyclopropylethyl)-5-(3,5-dimethylisoxazol-4-yl)-1H-pyrrolo[2,3-b]pyridin-3-yl)-3-(trifluoromethoxy)benzoic acid] | 0.1 to 1000
7 | CCOc1cc(C(=O)O)cc(OCC)c1-n1cc(-c2ccc(F)cc2)c2ncc(-c3c(C)noc3C)cc21 [P-0184, 4-(6-(3,5-dimethylisoxazol-4-yl)-3-(4-fluorophenyl)-1H-pyrrolo[3,2-b]pyridin-1-yl)-3,5-diethoxybenzoic acid] | 0.1 to 1000
8 | COC(=O)c1cc(OC)c(-n2cc(-c3ccccc3)c3ncc(-c4c(C)noc4C)cc32)c(OC)c1 [P-0219, methyl 4-(6-(3,5-dimethylisoxazol-4-yl)-3-phenyl-1H-pyrrolo[3,2-b]pyridin-1-yl)-3,5-dimethoxybenzoate] | 0.1 to 1000
9 | Cc1ccncc1-n1cc(-c2ccc(C(=O)O)cc2OC(F)(F)F)c2cc(-c3c(C)noc3C)cnc21 [P-0189, 4-(5-(3,5-dimethylisoxazol-4-yl)-1-(4-methylpyridin-3-yl)-1H-pyrrolo[2,3-b]pyridin-3-yl)-3-(trifluoromethoxy)benzoic acid] | 0.1 to 1000
10 | Cc1noc(C)c1-c1cnc2c(-c3ccc(C(=O)O)cc3C#CC3CC3)cn([C@@H](C)c3ccccn3)c2c1 [P-0171, (S)-3-(cyclopropylethynyl)-4-(6-(3,5-dimethylisoxazol-4-yl)-1-(1-(pyridin-2-yl)ethyl)-1H-pyrrolo[3,2-b]pyridin-3-yl)benzoic acid] | 0.1 to 1000
11 | COc1ccncc1-n1cc(-c2ccc(C(=O)O)cc2OC(F)(F)F)c2cc(-c3c(C)noc3C)cnc21 [P-0176, 4-(5-(3,5-dimethylisoxazol-4-yl)-1-(4-methoxypyridin-3-yl)-1H-pyrrolo[2,3-b]pyridin-3-yl)-3-(trifluoromethoxy)benzoic acid] | 0.1 to 1000
12 | CCOc1cc(C(=O)O)cc(OCC)c1-n1cc(CC2CCC2)c2ncc(-c3c(C)nnn3C)cc21 [P-0190, 4-(3-(cyclobutylmethyl)-6-(1,4-dimethyl-1H-1,2,3-triazol-5-yl)-1H-pyrrolo[3,2-b]pyridin-1-yl)-3,5-diethoxybenzoic acid] | 0.1 to 1000
13 | Cc1noc(C)c1-c1cnc2c(-c3ccc(C(=O)O)cc3F)c(C(F)(F)F)n([C@@H](C)c3ccccn3)c2c1 [P-0234, (S)-4-(6-(3,5-dimethylisoxazol-4-yl)-1-(1-(pyridin-2-yl)ethyl)-2-(trifluoromethyl)-1H-pyrrolo[3,2-b]pyridin-3-yl)-3-fluorobenzoic acid] | 0.1 to 1000
14 | Cc1noc(C)c1-c1cnc2c(c1)c(-c1c(F)cc(C(=O)O)cc1OC(F)(F)F)cn2C(C1CC1)C1CC1 [P-0230, 4-(1-(dicyclopropylmethyl)-5-(3,5-dimethylisoxazol-4-yl)-1H-pyrrolo[2,3-b]pyridin-3-yl)-3-fluoro-5-(trifluoromethoxy)benzoic acid] | 0.1 to 1000
15 | Cc1noc(C)c1-c1cnc2c(-c3cc(F)cc(C(=O)O)c3)c(C(F)(F)F)n([C@@H](C)c3ccccn3)c2c1 [P-0240, (S)-3-(6-(3,5-dimethylisoxazol-4-yl)-1-(1-(pyridin-2-yl)ethyl)-2-(trifluoromethyl)-1H-pyrrolo[3,2-b]pyridin-3-yl)-5-fluorobenzoic acid] | 0.1 to 1000
16 | CCOc1cc(C(=O)O)cc(OCC)c1-n1cc(Cc2ccccn2)c2ncc(-c3c(C)noc3C)cc21 [P-0187, 4-(6-(3,5-dimethylisoxazol-4-yl)-3-(pyridin-2-ylmethyl)-1H-pyrrolo[3,2-b]pyridin-1-yl)-3,5-diethoxybenzoic acid] | 0.1 to 1000
17 | Cc1noc(C)c1-c1cnc2c(c1)c(-c1ccc(C(=O)O)cc1OC(C)C)cn2C(C1CC1)C1CC1 [P-0213, 4-(1-(dicyclopropylmethyl)-5-(3,5-dimethylisoxazol-4-yl)-1H-pyrrolo[2,3-b]pyridin-3-yl)-3-isopropoxybenzoic acid] | 0.1 to 1000
18 | CCOc1cc(C(=O)O)cc(OCC)c1-n1cc(CC2CCC2)c2ncc(-c3c(COC)noc3C)cc21 [P-0210, 4-(3-(cyclobutylmethyl)-6-(3-(methoxymethyl)-5-methylisoxazol-4-yl)-1H-pyrrolo[3,2-b]pyridin-1-yl)-3,5-diethoxybenzoic acid] | 0.1 to 1000
19 | CCOc1cc(C(=O)O)cc(OCC)c1-n1cc(-c2cccc(Cl)c2)c2ncc(-c3c(C)noc3C)cc21 [P-0185, 4-(3-(3-chlorophenyl)-6-(3,5-dimethylisoxazol-4-yl)-1H-pyrrolo[3,2-b]pyridin-1-yl)-3,5-diethoxybenzoic acid] | 0.1 to 1000
20 | Cc1noc(C)c1-c1cnc2c(c1)c(-c1ccc(C(=O)O)cc1OC(F)(F)F)c(C)n2-c1ccccn1 [P-0228, 4-(5-(3,5-dimethylisoxazol-4-yl)-2-methyl-1-(pyridin-2-yl)-1H-pyrrolo[2,3-b]pyridin-3-yl)-3-(trifluoromethoxy)benzoic acid] | 0.1 to 1000
21 | CCOc1cc(C(=O)O)cc(OC(C)C)c1-c1cn([C@@H](C)c2ccccn2)c2ncc(-c3c(C)noc3C)cc12 [P-0174, (S)-4-(5-(3,5-dimethylisoxazol-4-yl)-1-(1-(pyridin-2-yl)ethyl)-1H-pyrrolo[2,3-b]pyridin-3-yl)-3-ethoxy-5-isopropoxybenzoic acid] | 0.1 to 1000
22 | Cc1noc(C)c1-c1cnc2c(c1)c(-c1ccc(C(=O)O)cc1OC(F)(F)F)cn2-c1ncccc1C#CC1CC1 [P-0216, 4-(1-(3-(cyclopropylethynyl)pyridin-2-yl)-5-(3,5-dimethylisoxazol-4-yl)-1H-pyrrolo[2,3-b]pyridin-3-yl)-3-(trifluoromethoxy)benzoic acid] | 0.1 to 1000
23 | CCOc1cc(C(=O)O)cc(OCC)c1-n1cc(-c2ccc(F)c(Cl)c2)c2ncc(-c3c(C)noc3C)cc21 [P-0209, 4-(3-(3-chloro-4-fluorophenyl)-6-(3,5-dimethylisoxazol-4-yl)-1H-pyrrolo[3,2-b]pyridin-1-yl)-3,5-diethoxybenzoic acid] | 0.1 to 1000
24 | Cc1noc(C)c1-c1cnc2c(c1)c(-c1ccc(C(=O)O)cc1OC(F)(F)F)cn2-c1cnccc1Cl [P-0177, 4-(1-(4-chloropyridin-3-yl)-5-(3,5-dimethylisoxazol-4-yl)-1H-pyrrolo[2,3-b]pyridin-3-yl)-3-(trifluoromethoxy)benzoic acid] | 0.1 to 1000
25 | Cc1noc(C)c1-c1cnc2c(c1)c(-c1ccc(C(=O)O)cc1OC(F)(F)F)cn2-c1ncccc1F [P-0182, 4-(5-(3,5-dimethylisoxazol-4-yl)-1-(3-fluoropyridin-2-yl)-1H-pyrrolo[2,3-b]pyridin-3-yl)-3-(trifluoromethoxy)benzoic acid] | 0.1 to 1000
26 | COc1cccc(OC)c1-n1cc(-c2ccccc2)c2ncc(-c3c(C)noc3C)cc21 [P-0221, 4-(1-(2,6-dimethoxyphenyl)-3-phenyl-1H-pyrrolo[3,2-b]pyridin-6-yl)-3,5-dimethylisoxazole] | 0.1 to 1000
27 | Cc1noc(C)c1-c1cnc2c(c1)c(-c1ccc(C(=O)O)cc1)cn2C(C)c1ncccn1 (stereo not drawn) [P-0013, 4-(5-(3,5-dimethylisoxazol-4-yl)-1-(1-(pyrimidin-2-yl)ethyl)-1H-pyrrolo[2,3-b]pyridin-3-yl)benzoic acid] | 0.1 to 1000
